# Publication PMC8880385 (Pharmaceuticals, 2022)
# Where “and” joins values, the source holds several entries; their conditions need not be identical. Identical values can stand only once. Entries after “also recorded” stand apart in the source; their conditions may differ.
# Tests used:
# O. volvulus pre-adult L5 [1] = experiment: O. volvulus pre-adult (Ov L5) motility assay; assay type: cell-based, Onchocerca volvulus; settings: for inhibition at 1 µM: Onchocerca volvulus
# Protocol: O. volvulus adult male and female worms, which can only be obtained from infected individuals, are not readily accessible for ex vivo studies. Moreover, since there is no small animal model that can maintain infections by O. volvulus, a recently developed in vitro system was used to evaluate the macrofilaricidal effects on pre-adult worms. All compounds except for 04 were tested in this O. volvulus pre-adult/L5 motility and viability assay.
# Briefly, Ov L3 larvae were cultured to the pre-adult/L5 stage in vitro as described by Voronin et al., 2019 [45]. Once larvae reached the L5 stage (after at least 70 days in culture), 8–10 Ov L5 were moved to new transwell inserts in a 24-well plate containing 0.5 mL Ov L4-CMS media seeded with a 3 × 10^4/well Human Umbilical Vein Endothelial Cells (HUVEC) monolayer. Duplicate wells were treated with 1 and/or 10 µM of compound. Ov L5 were exposed to compounds for 14 days (exchanged 50% of media with fresh compound every two days) and then cultured with new media without compound, exchanging 50% of media every 2–3 days, up to day 36. Control Ov L5 were treated with 0.05% DMSO. Concentrations were chosen based on activity in the B. pahangi female motility assay. Motility was assessed visually and ranked on a 0–100% scale every 2–3 days over the course of the assay. At the end of the motility assay, Ov L5 viability was measured by 3-(4,5-dimethylthiazol-2-yl)-2,5-diphenyltetrazolium bromide (MTT) assay. Ov L5 were incubated with 0.1% MTT in PBS at 37 °C for 1 h then visually inspected for blue coloration indicating MTT reduction. Worms were considered dead if <50% of the worm was stained blue, and worms were considered alive if >50% of the worm was stained blue.
# O. ochengi adult males = experiment: O. ochengi adult male motility assay; assay type: cell-based; settings: Onchocerca ochengi, 120 h; read-out: O. ochengi Adult Males Inhibition of Motility Day 5 IC50
# Text: As humans are the only hosts for O. volvulus which are unavailable for screening, drug discovery relies on the surrogate filarial parasites Brugia spp. and cattle Onchocerca spp. Prioritized compounds from the Brugia worm screens were further tested with female and male adult O. ochengi as well as O. ochengi and L. loa mf.
# For these assays, O. ochengi adults were extracted from the subcutaneous nodules of infected cow skins purchased from the local slaughterhouse (Douala, Littoral Region, Cameroon) and incubated in 4 mL complete culture media comprised of RPMI-1640 (Sigma-Aldrich), 5% newborn calf serum, 200 units/mL penicillin, 200 μg/mL streptomycin and 2.5 μg/mL amphotericin B (Sigma-Aldrich) in 12-well plates overnight to validate sterility prior to the assays. Four to eight O. ochengi adult masses were treated individually the following day with a serial dilution of each compound, and controls were treated with 1% DMSO. While in culture, the male worms normally egress from the nodules into the surrounding media and thus can be monitored in parallel for motility. The O. ochengi adult masses were incubated at 37 °C with 5% CO2 for the duration of the assay. Male motility within each well was visually scored every day and over 5 days after compound addition, and female viability within the nodules was assessed by MTT after 7 days as previously described. The O. ochengi adult masses containing female worms were individually placed in wells of a 48-well plate with 0.5 mL of 0.5 mg/mL MTT in PBS and incubated at 37 °C for 30 min. Female viability was visually rated by the degree of formazan production (live worms have blue coloration) in the female worm within the treated nodule versus control worm masses. […] Prism 4.0 for Windows was used to calculate IC50s.
# O. ochengi mf = experiment: O. ochengi microfilariae motility assay; assay type: cell-based, Onchocerca ochengi
# Protocol: (§1) To assess the effects of the compounds on O. ochengi mf, the mf were harvested from infected cow skin and cultured (10–15 mf per well) in 100 µL media in 96-well plates with a confluent feeder layer of monkey kidney epithelial cells (MK2) as previously described. […] All compounds were also counter-screened with L. loa mf collected from infected individuals with approval from the University of Buea (IRB approval # 964-19). Mf were separated from blood cells using a Percoll gradient as previously described and set up for assays (10–15 mf per well).
# Loa loa mf = experiment: Loa loa microfilariae motility counter-screen; assay type: cell-based
# Protocol: as §1
# Brugia pahangi = experiment: Brugia pahangi/gerbil model of infection: worm and peritoneal mf counts at necropsy; assay type: in vivo
# Protocol: Male Mongolian gerbils 50–60 g, 5–7 weeks in age (Meriones unguiculatus, Charles River Laboratories International, Inc., Wilmington, MA, USA) were injected intraperitoneally (IP) with 200 third-larval stage B. pahangi and treated a minimum of 3 months later when larvae developed into adult worms.
# Animals were given IP doses of 1 mg/kg once a day for 5 days based on in vivo studies by Jones et al., 2009 [14] and gerbil PK analyses. Compounds are light sensitive and were shielded from light during formulation. Animals were necropsied 13 weeks post-first dose, and peritoneal cavities were washed with 100 mL of PBS to collect adult worms and mf that had been released from female worms. Adult worms were separated by sex, counted, and processed for subsequent analyses. Mf from the peritoneal cavities were quantified by mixing peritoneal wash 9:1 (v/v) with 0.04% methylene blue:water and counted using an inverted microscope.
# Worm burden, peritoneal mf counts, overnight mf sheds and qPCR data were analyzed using a Kruskal–Wallis test followed by Dunn’s multiple comparison. To determine significant differences in embryograms, a two-way ANOVA was conducted with a Dunnett’s multiple comparisons test, and significance levels were determined based on comparisons with vehicle treated animals. All statistical analyses were determined using Prism 8 version 8.2.0(272).
# O. volvulus pre-adult L5 [2] = experiment: O. volvulus pre-adult (Ov L5) motility assay; assay type: cell-based; settings: Onchocerca volvulus, 504 h; on Day 21; read-out: O. volvulus L5 Inhibition of Motility IC50
# [3] = tested on: Brugia pahangi adult females; experiment: In vitro motility assay with adult female Brugia pahangi (Worminator)
# [4] = gerbil, 1 mg/kg IP once a day for 5 days, necropsy 13 weeks post-first dose, mean (SEM)
# [5] = gerbil, 1 mg/kg IP once a day for 5 days, necropsy 13 weeks post-first dose, mean (SEM), 1 mg/kg
compound,measurement,setting,value
"Cc1cc(/C=C/c2ccc3cc(N(C)C)ccc3[n+]2C)c(C)n1-c1ccccc1 [PVP, pyrvinium pamoate, reference compound]",Ov L5 fate during assay (in words),"O. volvulus pre-adult L5 [1]; 1 µM, 14 days drug then washout",dead by day 14; also recorded: did not recover
same,inhibition at 1 µM,"O. volvulus pre-adult L5 [1]; 336 h, Day 14 @ 1 µM",100%
same,inhibition at 1 µM,"O. volvulus pre-adult L5 [1]; Day 36 @ 1 µM, 14 days drug then washout",> 90%
same,IC50,O. ochengi adult males,110 nM
same,O. ochengi Mf Inhibition of Motility Day 5 @ 10 µM,O. ochengi mf; 10 µM,completely inhibited
same,inhibition at 10 µM,"O. ochengi mf; Onchocerca ochengi, 120 h, 10 µM, Day 5",100%
same,IC50,"O. ochengi mf; Onchocerca ochengi, 120 h, Day 5",300 nM
same,Loa loa Mf Inhibition of Motility Day 5 @ 10 µM,Loa loa mf,completely inhibited
same,inhibition at 10 µM,"Loa loa mf; Loa loa, 120 h, Day 5",100%
same,Total female worms recovered from treated animals,"Brugia pahangi; gerbil, 1 mg/kg IP",1
same,Reduction of peritoneal mf numbers compared to control group,"Brugia pahangi; gerbil, 1 mg/kg IP once a day for 5 days, 13 weeks post-first dose",~ 95%
same,Reduction of adult worm numbers (worm burden) compared to control group,"Brugia pahangi; gerbil, 1 mg/kg IP once a day for 5 days, 13 weeks post-first dose, not statistically significant, 1 mg/kg",~ 95% and 95%
same,Female worms per animal,Brugia pahangi; [4],0.1 (0.1)
same,Male worms per animal,Brugia pahangi; [4],0.7 (0.4)
same,Adult worms per animal,Brugia pahangi; [5],0.9 and 0.9 (0.5)
same,Mf per animal (peritoneal cavity),Brugia pahangi; [5],"10.4 × 10^3 and 10,429"
same,Total worms recovered from treated animals,"Brugia pahangi; n = 7 animals, vehicle total 148 worms (n = 8)",6 worms
same,IC50,O. volvulus pre-adult L5 [2],< 300 nM
same,Brugia Adult Females Inhibition of Motility Day 3 @ 1 µM,"[3]; 1 µM, Day 3, 1 µM",82%
same,inhibition at 1 µM,"[3]; Brugia pahangi, 72 h, read-out: Brugia Adult Females Inhibition of Motility Day 3 @ 1 µM, 1 µM, Day 3",> 70%
same,IC50,"[3]; Brugia pahangi, 72 h, read-out: Brugia Adult Females Inhibition of Motility Day 3 IC50",0.3 nM
same,Brugia Adult Females Inhibition of Motility Day 3 IC50,[3]; Day 3,sub-micromolar range
